The values below come from patent US5393747A, “Substituted dibenzoxazepine compounds for the treatment of convulsions, ischemia and other diseases responsive to prostaglandin-E2 antagonists” (G. D. Searle & Co., priority 1993, dated 1995).

Experiment [1] has as its target T1, prostaglandin E2-induced contractions of segments of guinea pig ileum (Cavia porcellus, UniProt A0A286XHJ6).
T1 construct: The ileums were then quickly removed from the guinea pigs; from tissue; host or cells: guinea pig ileum segments (male albino guinea pigs)
T1 sequence (A0A286XHJ6 1-405): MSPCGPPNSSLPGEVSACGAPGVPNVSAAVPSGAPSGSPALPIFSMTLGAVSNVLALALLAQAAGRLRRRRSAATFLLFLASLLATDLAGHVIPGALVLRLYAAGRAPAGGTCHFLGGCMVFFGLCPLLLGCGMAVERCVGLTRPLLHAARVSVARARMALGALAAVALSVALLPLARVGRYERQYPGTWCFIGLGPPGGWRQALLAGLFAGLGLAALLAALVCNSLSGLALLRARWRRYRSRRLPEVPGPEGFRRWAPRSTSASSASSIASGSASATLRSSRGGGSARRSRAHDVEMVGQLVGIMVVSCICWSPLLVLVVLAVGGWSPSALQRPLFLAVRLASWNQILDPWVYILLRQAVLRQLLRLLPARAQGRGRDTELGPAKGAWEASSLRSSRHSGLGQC
The experiment in a line: Prostaglandin (PGE) Antagonism Assay in guinea pig ileum. Also on record: key to PGE antagonism in guinea pig ileum, activity: Active: A concentration of test compound was determined to be "active" if it produced a dose ratio significantly greater than that obtained in a series of blank treatments. Conditions: for Kb: Schild plot, guinea pig ileum, 37° C., read-out: PGE antagonism in guinea pig ileum (pA2) (converted); for PGE antagonism in guinea pig ileum, activity: initial concentration of test compound. How it is done: In order to determine the effectiveness of several of the compounds of the present invention ("test compounds") as prostaglandin E2 antagonists,a prostaglandin antagonism assay was conducted, as described below, to determine the ability of these compounds to inhibit prostaglandin E2 -induced contractions of segments of guinea pig ileum.
Male albino guinea pigs weighing 200 to 500 grams were sacrificed by cervical dislocation.
The ileums were then quickly removed from the guinea pigs and placed in a modified Tyrode solution, a solution which is known to those of skill in the art, containing one-half of the usual amount of magnesium ions.
Segments of ileum about 2 cm long were then cut and mounted in a 10-mL tissue bath containing the modified Tyrode solution. The solution was maintained at 37° C. and aerated with a gaseous mixture of 95% oxygen and 5% carbon dioxide.
Submaximal contractions of the ileum segments were then generated by injecting prostaglandin E2 into the bath, and detected isotonically. Data for a control prostaglandin E2 dose response curve plotting concentration of prostaglandin E2 versus number of contractions generated was then obtained by experimentally adjusting the dose of the prostaglandin E2 being injected into the tissue bath, in a manner known by those of skill in the art.
Solutions or suspensions containing an initial amount of a test compound in modified Tyrode solution ("test solutions/suspensions") were then separately substituted for the tissue bath. Each test solution/suspension was then kept in constant contact with the ileum tissue, except for brief periods to drain the bath in preparation for rinsing with fresh test solution/suspension. Different doses of prostaglandin E2 were again injected into the test solutions/suspensions.
A second prostaglandin E2 dose response curve was then generated for PGE2 in the presence of a test compound.
A dose ratio of EC50 doses (that dose of a compound or drug which is necessary to elicit a 50% maximal biological response and, thus, which is necessary to elicit a 50% reduction in the contractions of the guinea pig ileum segments in this assay) was then calculated from the results of each test in a manner known by those of skill in the art. […] Duplicate tests were conducted on each concentration of test compound.
If the initial concentration of a test compound was determined to be "active," then varying concentrations of the test compound were then assayed. As is shown in Table I below, all test compounds analyzed in this assay were determined to be "active" as prostaglandin E2 antagonists at the initial concentration.
The pA2 value (a statistical constant which is a common measure of expressing the potency of a particular drug as a competitive antagonist) was then calculated for each test compound by schild plot calculations, as described by H. O. Schild, "pA, A New Scale for the Measurement of Drug Antagonism," Br. J. Pharmacol, 2, 189 (1947), according to the following mathematical formula: […]
to quantitate the effectiveness of the test compounds as prostaglandin E2 antagonists.
The compounds of the present invention which were tested in this assay, and for which results are presented in Table I, correspond to the particular examples specified in Table I.

The test system of another experiment is mice. The experiment can be described thus: Writhing Assay (PBQ-induced writhing, analgesic activity). Conditions: for rank order of potency in the Writhing Assay: more potent compounds of the invention. The class given is in vivo, mouse (Charles River male albino). The text has this: The Writhing Assay is one of the most widely-used experimental procedures for measuring the analgesic activity of different narcotic and nonnarcotic analgesic agents, and involves the continuous, chemically-induced pain of visceral origin to an animal, such as a mouse or rat. [Gyires et al., Arch. int. Pharmacodyn, 267, 131-140 (1984); C. Vander Wende et al., Fed. Proc., 15, 494 (1956); Koster et al., Fed. Proc., 18, 412 (1959); and Witken et al., J. Pharmacol. exp. Ther., 133, 400-408 (1961).] Chemicals which may be used to induce this pain include phenylbenzoquinone (PBQ) and acetic acid. As a result of the chemical irritation to the animal, a characteristic stretching and writhing of the animal (dorsiflexion of the animal's back, extension of its hindlimbs and the strong contraction of its abdominal musculature) will generally occur. […] Drugs which reduce the number of writhes of the animal appear to restore the normal nociceptive threshold of the animal.
Charles River male albino mice, weighing 20 to 30 grams were used in this assay.
Thirty minutes after subcutaneous or intragastric administration to ten mice of either 10 mg or 30 mg per kilogram of body weight of a compound of the present invention ("test compound"), […] of body weight of a 0.025% w/v solution of PBQ was injected intraperitoneally into each mouse. Ten mice which were given saline in place of a test compound of the invention were used as a control group.
Five minutes later, each mouse was individually placed into a glass beaker for observation, and the number of writhes occurring during the following ten-minute period was counted.
A test compound was considered to have produced analgesia in a mouse if, in accordance with the conditions set forth above, and under the test criteria employed for this assay, after the administration of 10 or 30 mg per kilogram of body weight of a compound of the present invention to the mouse, the number of writhes elicited by a mouse injected with PBQ was equal to, or less than, one-half the median number of writhes recorded for the saline-treated control group of mice that day, as described by Taber in "Predictive Value of Analgesic Assays in Mice and Rats," Advances in Biochemical Psychopharmacology, 8, 191 (1974).
The results for the particular compounds of the present invention analyzed in this assay, and discussed in the examples identified below which correspond thereto, are presented in Table I below.
The standard initial screening doses of a test compound employed in this assay were 10 and/or […] of body weight for both routes of administration. If these initial screening doses of the test compound produced analgesia in seven of ten mice, then the effect of additional doses of the test compound on the writhing response was evaluated, and then the ED50 dose was generally calculated. (The slopes of the dose-response curves for all test compounds analyzed were compared as described by Tallarida and Murray, Manual of Pharmacologic Calculations, Page 11 (Springer Verlag, N.Y., 1981)).
On the technique in general: An intraperitoneal irritant provokes the stretching counted in writhing tests.

In experiment [2] the test system is isolated smooth muscle preparations. Conditions: cited from earlier work.
Experiment [3] has as its system micturition of urethane-anesthetized rats. Conditions: cited from earlier work.
The mark [4] stands for this setting: po, mouse, intragastric, read-out: PBQ writhing assay ED50, I.G.
[5] abbreviates: Mus musculus, po, read-out: PBQ writhing assay ED50, I.G.

Structures are written as SMILES. “Also recorded” adds a separate entry of the source. Like-named read-outs stand apart in the source and are kept apart here.

Take `O=C(Cc1cccs1)NCCC(=O)NNC(=O)N1Cc2ccccc2Oc2ccc(Cl)cc21` [Example 5, 8-chlorodibenz[b,f][1,4]oxazepine-10(11H)-carboxylic acid, 2-[1-oxo-3-[(2-thienylacetyl)amino]propyl]hydrazide]: in experiment [1], the Kb was 79.4 nM and the “PGE antagonism in guinea pig ileum, activity” value (“PGE antagonism” for short) is “Active”. For the same compound, the “effectiveness as prostaglandin E2 antagonist relative to prostaglandin antagonists reported in the literature” value in experiment [1] (compared with literature prostaglandin E2 antagonists) is listed as “more than three to four times more effective”.

Consider `CC(C)(C)OC(=O)NCCC(=O)NNC(=O)N1Cc2ccccc2Oc2ccc(Cl)cc21` [Example 7, 8-chlorodibenz[b,f][1,4]oxazepine-10(11H)-carboxylic acid, 2-[3-[[(1,1-dimethylethoxy)carbonyl]amino]-1-oxopropyl]hydrazide], for which, in experiment [1], the Kb is 2510 nM and the “PGE antagonism” value is reported as “Active”.

For the compound `O=C(CCNC(=O)Nc1ccc(C(F)(F)F)cc1)NNC(=O)N1Cc2ccccc2Oc2ccc(Cl)cc21` [Example 10, 8-chlorodibenz[b,f][1,4]oxazepine-10(11H)-carboxylic acid, 2-[1-oxo-3-[[[[(4-trifluoromethyl)phenyl]amino]carbonyl]amino]propyl]hydrazide], in experiment [1], the Kb was 100 nM and the “PGE antagonism” value was “Active”.

As to `CS(=O)(=O)NCCC(=O)NNC(=O)N1Cc2ccccc2Oc2ccc(Cl)cc21` [Example 11, 8-chlorodibenz[b,f][1,4]oxazepine-10(11H)-carboxylic acid, 2-[3-[(methylsulfonyl)amino]-1-oxopropyl]hydrazide], the “rank order of potency in the Writhing Assay” value (from here on “rank order of potency”) with mice was “Example 20>Example 27>Example 12>Example 11>Example 28”. In addition, the ED50 with mice (setting [4]) was 9.7 mg/kg. Also, in the experiment on mice (sc, mouse, subcutaneous, read-out: PBQ writhing assay ED50, S.C.), the ED50 is 3 mg/kg. In addition, in experiment [1], the Kb is 794 nM and the “PGE antagonism” value is reported as “Active”.

Take `CNC(=O)NCCC(=O)NNC(=O)N1Cc2ccccc2Oc2ccc(Cl)cc21` [Example 12, 8-chlorodibenz[b,f][1,4]oxazepine-10(11H)-carboxylic acid, 2-[3-[[(methylamino)carbonyl]amino]-1-oxopropyl]hydrazide]: the “rank order of potency” value in the experiment on mice was “Example 20>Example 27>Example 12>Example 11>Example 28”. Moreover, the median effective dose (ED50) with mice (setting [4]) is 8.4 mg/kg.

For `CCOP(=O)(CC(=O)NNC(=O)N1Cc2ccccc2Oc2ccc(Cl)cc21)OCC` [Example 20, 8-chlorodibenz[b,f][1,4]oxazepine-10(11H)-carboxylic acid, 2-[(diethoxyphosphinyl)acetyl]hydrazide], the ED50 in the experiment with mice (setting [5]) was 8.2 mg/kg; in the experiment with mice (Mus musculus, sc, read-out: PBQ writhing assay ED50, S.C.) it was 7.1 mg/kg. For the same compound, the “rank order of potency” value with mice is reported as “Example 20>Example 27>Example 12>Example 11>Example 28; also recorded: the most potent compound of the invention tested”. Moreover, the Kb in experiment [1] is 794 nM. Besides, the “PGE antagonism” value in experiment [1] is given as “Active”.

Turning to `O=C(CCNS(=O)(=O)c1ccccc1)NNC(=O)N1Cc2ccccc2Oc2ccc(Cl)cc21` [Example 24, 8-chlorodibenz[b,f][1,4]oxazepine-10(11H)-carboxylic acid, 2-[1-oxo-3-[(phenylsulfonyl)amino]propyl]hydrazide], in experiment [1], the Kb was 2000 nM and the “PGE antagonism” value is “Active”.

With `CCOP(=O)(O)CC(=O)NNC(=O)N1Cc2ccccc2Oc2ccc(Cl)cc21` [Example 27, 8-chlorodibenz[b,f][1,4]oxazepine-10(11H)-carboxylic acid, 2-[(ethoxyhydroxyphosphinyl)acetyl]hydrazide], the ED50 with mice (setting [5]) turned out to be 8.3 mg/kg. In addition, the “rank order of potency” value in the experiment on mice is listed as “Example 20>Example 27>Example 12>Example 11>Example 28”.

In the case of `O=C(CP(=O)(O)O)NNC(=O)N1Cc2ccccc2Oc2ccc(Cl)cc21` [Example 28, 8-chlorodibenz[b,f][1,4]oxazepine-10(11H)-carboxylic acid, 2-(phosphonoacetyl)hydrazide], the “rank order of potency” value in the experiment with mice is recorded as “Example 20>Example 27>Example 12>Example 11>Example 28”. Further, in the experiment with mice (setting [4]), the ED50 turned out to be 11.2 mg/kg.

`O=C(Cc1ccccc1)NNC(=O)N1Cc2ccccc2Oc2ccc(Cl)cc21` [SC-18637]: the “inhibition of stimulant actions of prostaglandins” value in experiment [2] is given as “inhibit the stimulant actions of prostaglandins on isolated smooth muscle preparations”.

For the compound `CC(=O)NNC(=O)N1Cc2ccccc2Oc2ccc(Cl)cc21` [SC-19220], the “inhibition of stimulant actions of prostaglandins” value in experiment [2] was “inhibit the stimulant actions of prostaglandins on isolated smooth muscle preparations”. Besides, in experiment [3], the bladder capacity entry is listed as “increased the bladder capacity” and the “voiding efficiency of micturition” value is “reduced the voiding efficiency of micturition”.

Usually ED50 stands for the dose that gives a 50% effect, or the effect in half of the subjects.
